{"source": "patent EP0934745B1", "about": "“Use of androsterone derivatives for inhibiting DNA binding of ap-1 and airway smooth muscle proliferation” (CHARLOTTE-MECKLENBURG HOSPITAL doing business as Carolinas …, priority 1998, dated 1999)", "system": "c-fos", "experiment": "Expression of c-fos protein (immunoblot) and mRNA (RT-PCR) after FBS stimulation", "assay_type": "cell-based, rat", "settings": "pretreated 2 hours with 10 µM (Figures 7A-7C)", "procedure": "To determine if 16α-BrEA impaired expression of early response genes important for cellular proliferation, confluent 75-cm^2 Petri dishes of airway smooth muscle cells were growth arrested by incubation for 24 hours in DMEM with 0.5% FBS. Monolayers were pretreated 2 hours with 10 µM 16α-BrEA or DMSO vehicle, and stimulated by exposure to DMEM with 10% FBS for 30 minutes. Cells were then lysed and c-fos mRNA was measured by the reverse transcriptase-polymerase chain reaction, as described below. To study whether levels of c-fos protein were affected, confluent monolayers on 6-well plates were growth arrested for 24 hours in DMEM with 0.5% FBS. Cells were then pretreated 2 hours with 16α-BrEA or DMSO vehicle and stimulated with 10% FBS in DMEM for 15, 30 and 60 minutes. Cells were then lysed and c-fos protein was assayed by immunoblotting as described below.\nFor measurement of c-fos protein, monolayers were placed on ice, washed twice with cold DPBS, scraped into 0.5 ml boiling buffer (10% [vol/vol] glycerol and 2% [wt/vol] sodium dodecyl sulfate [SDS] in 83 mM Tris, pH 6.8) and sonicated. Aliquots were removed for protein determination, bromophenol blue and β-mercaptoethanol were added and lysates were boiled and stored as outlined above. […]"}
{"compound": "C[C@]12CC[C@H](O)C[C@@H]1CC[C@@H]1[C@@H]2CC[C@]2(C)C(=O)[C@H](Br)C[C@@H]12", "note": "[16α-BrEA, 16α-bromoepiandrosterone]", "values": [{"measurement": "stimulation of c-fos protein or mRNA in response to 10% FBS", "result": "did not reduce"}]}
